According to patent publication US20240150377A1, “MODULATORS OF CYSTIC FIBROSIS TRANSMEMBRANE CONDUCTANCE REGULATOR” (VERTEX PHARMACEUTICALS INCORPORATED, priority 2020, published 2024):
Read-outs that look alike come from different tables or passages of the source.

Molecular target: CFTR (Homo sapiens, UniProt P13569)
Assay: Membrane potential dye, Enteroid Assay A
Type: cell-based
Settings: for Ent. A Max Activity: chloride transport as % of triple combination control (Enteroid Assay A); for EC50: human enteroid cells, 18-24 hours, acute 10 μM forskolin and 300 nM ivacaftor, read-out: Ent. A EC50
Protocol: Base medium (ADF+++) consisted of Advanced DMEM/Ham's F12, 2 mM Glutamax, 10 mM HEPES, […] penicillin/streptomycin.
Intestinal enteroid maintenance medium (IEMM) consisted of ADF+++, 1× B27 supplement, 1× N2 supplement, 1.25 mM N-acetyl cysteine, 10 mM Nicotinamide, 50 ng/mL hEGF, 10 nM Gastrin, 1 μg/mL hR-spondin-1, 100 ng/mL hNoggin, TGF-b type 1 inhibitor A-83-01, 100 μg/mL Primocin, 10 μM P38 MAPK inhibitor SB202190.
Bath 1 Buffer consisted of 1 mM MgCl2, 160 mM NaCl, 4.5 mM KCl, 10 mM HEPES, 10 mM Glucose, 2 mM CaCl2).
Chloride Free Buffer consisted of 1 mM Magnesium Gluconate, 2 mM Calcium Gluconate, 4.5 mM Potassium Gluconate, 160 mM Sodium Gluconate, 10 mM HEPES, 10 mM Glucose.
BathI Dye Solution consisted of Bath 1 Buffer, 0.04% Pluronic F127, 20 μM Methyl Oxonol, 30 μM CaCCinh-A01, 30 μM Chicago Sky Blue.
Chloride Free Dye Solution consisted of Chloride Free Buffer, 0.04% Pluronic F127, 20 μM Methyl Oxonol, 30 μM CaCCinh-A01, 30 μM Chicago Sky Blue.
Chloride Free Dye Stimulation Solution consisted of Chloride Free Dye Solution, 10 μM forskolin, 100 μM IBMX, and 300 nM Compound III.
Human intestinal epithelial enteroid cells were obtained from the Hubrecht Institute for Developmental Biology and Stem Cell Research, Utrecht, The Netherlands and expanded in T-Flasks as previously described (Dekkers J F, Wiegerinck C L, de Jonge H R, Bronsveld I, Janssens H M, de Winter-de Groot K M, Brandsma A M, de Jong N W M, Bijvelds M J C, Scholte B J, Nieuwenhuis E E S, van den Brink S, Clevers H, van der Ent C K, Middendorp S and M Beekman J M. A functional CFTR assay using primary cystic fibrosis intestinal organoids. Nat Med. 2013 July;19(7):939-45.).
3. Enteroid Cell Harvesting and Seeding
Cells were recovered in cell recovery solution, collected by centrifugation at 650 rpm for 5 min at 4° C., resuspended in TrypLE and incubated for 5 min at 37° C. Cells were then collected by centrifugation at 650 rpm for 5 min at 4° C. and resuspended in IEMM containing 10 μM ROCK inhibitor (RI). The cell suspension was passed through a 40 μm cell strainer and resuspended at 1×10^6 cells/mL in IEMM containing 10 μM RI. Cells were seeded at 5000 cells/well into multi-well plates and incubated for overnight at 37° C., 95% humidity and 5% CO2 prior to assay.
4. Membrane Potential Dye, Enteroid Assay A
Enteroid cells were incubated with test compound in IEMM for 18-24 hours at 37° C., 95% humidity and 5% CO2. […] Briefly, cells were washed 5 times in Bath 1 Buffer. Bath 1 Dye Solution was added, and the cells were incubated for 25 min at room temperature. Following dye incubation, cells were washed 3 times in Chloride Free Dye Solution. Chloride transport was initiated by addition of Chloride Free Dye Stimulation Solution and the fluorescence signal was read for 15 min. […] Chloride transport was then expressed as a percentage of the chloride transport following treatment with 3 μM N-[(6-amino-2-pyridyl)sulfonyl]-6-(3-fluoro-5-isobutoxy-phenyl)-2-[(4S)-2,2,4-trimethylpyrrolidin-1-yl]pyridine-3-carboxamide, 3 μM (R)-1-(2,2-difluorobenzo[d][1,3]dioxol-5-yl)-N-(1-(2,3-dihydroxypropyl)-6-fluoro-2-(1-hydroxy-2-methylpropan-2-yl)-1H-indol-5-yl)cyclopropanecarboxamide and 300 nM acute N-[2,4-bis(1,1-dimethylethyl)-5-hydroxyphenyl]-1,4-dihydro-4-oxoquinoline-3-carboxamide triple combination control (% Activity).

Sequence of CFTR (P13569 with tags, fused parts or gaps DEL508-508): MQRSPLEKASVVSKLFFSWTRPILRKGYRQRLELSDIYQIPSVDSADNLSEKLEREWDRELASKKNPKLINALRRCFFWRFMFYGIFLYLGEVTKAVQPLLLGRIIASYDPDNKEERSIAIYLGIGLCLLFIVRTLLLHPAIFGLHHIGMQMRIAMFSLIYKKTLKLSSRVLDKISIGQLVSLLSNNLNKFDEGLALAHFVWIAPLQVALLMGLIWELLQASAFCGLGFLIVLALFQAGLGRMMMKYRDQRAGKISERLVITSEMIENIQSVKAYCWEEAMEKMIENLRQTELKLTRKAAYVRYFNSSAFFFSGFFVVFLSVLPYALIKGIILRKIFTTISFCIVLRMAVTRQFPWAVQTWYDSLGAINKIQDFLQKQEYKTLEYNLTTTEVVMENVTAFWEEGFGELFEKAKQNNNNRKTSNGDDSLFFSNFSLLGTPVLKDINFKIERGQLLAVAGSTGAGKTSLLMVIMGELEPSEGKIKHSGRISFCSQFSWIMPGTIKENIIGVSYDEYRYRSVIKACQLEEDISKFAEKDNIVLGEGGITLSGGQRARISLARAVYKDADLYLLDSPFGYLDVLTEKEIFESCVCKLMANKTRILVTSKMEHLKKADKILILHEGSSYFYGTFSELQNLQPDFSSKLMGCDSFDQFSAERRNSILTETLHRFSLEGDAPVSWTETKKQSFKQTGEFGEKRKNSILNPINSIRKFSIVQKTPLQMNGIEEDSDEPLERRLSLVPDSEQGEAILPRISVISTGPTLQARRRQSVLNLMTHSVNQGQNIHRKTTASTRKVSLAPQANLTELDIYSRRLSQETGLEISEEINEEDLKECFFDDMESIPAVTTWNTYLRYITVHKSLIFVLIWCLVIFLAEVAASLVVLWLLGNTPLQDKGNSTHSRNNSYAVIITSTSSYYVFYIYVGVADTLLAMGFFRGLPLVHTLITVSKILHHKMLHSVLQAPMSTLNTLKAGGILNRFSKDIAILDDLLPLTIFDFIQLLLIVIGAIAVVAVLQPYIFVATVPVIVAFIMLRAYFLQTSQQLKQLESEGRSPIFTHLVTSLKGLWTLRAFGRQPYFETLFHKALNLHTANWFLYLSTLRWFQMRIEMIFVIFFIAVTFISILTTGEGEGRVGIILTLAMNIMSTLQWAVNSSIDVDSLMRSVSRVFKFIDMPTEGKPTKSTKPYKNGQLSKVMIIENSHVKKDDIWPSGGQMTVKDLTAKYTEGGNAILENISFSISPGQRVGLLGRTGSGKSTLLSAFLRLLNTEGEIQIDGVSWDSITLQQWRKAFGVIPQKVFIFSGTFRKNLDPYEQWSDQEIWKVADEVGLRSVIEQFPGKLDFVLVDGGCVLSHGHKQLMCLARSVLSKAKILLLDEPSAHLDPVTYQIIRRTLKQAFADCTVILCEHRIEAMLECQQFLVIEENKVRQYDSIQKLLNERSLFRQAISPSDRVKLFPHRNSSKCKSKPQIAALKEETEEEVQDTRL

Compound | Ent. A Max Activity (Table 6) | Ent. A Max Activity (Table 7) | EC50 (Table 7) [nM] | EC50 (Table 6) [nM]
Cc1cccc(C)c1-c1cc2nc(n1)NS(=O)(=O)c1cccc(c1)C(=O)N(C)CC(CNCCC(C)(C)C)O2 (stereo not shown) [Compound 1019] | + (+ is <30%) | – | – | –
Cc1cccc(C)c1-c1cc2nc(n1)NS(=O)(=O)c1cccc(c1)C(=O)N(C)C[C@H](c1cccc(C(C)(C)C)c1)O2 (single isomer, unassigned) [Compound 15, 10-(3-tert-butylphenyl)-6-(2,6-dimethylphenyl)-12-methyl-2,2-dioxo-9-oxa-2λ^6-thia-3,5,12,19-tetrazatricyclo[12.3.1.14,8]nonadeca-1(18),4(19),5,7,14,16-hexaen-13-one] | – | + (+ is <30%) | 3000 to 30000 | –
Cc1cccc(C)c1-c1cc2nc(n1)NS(=O)(=O)c1cccc(c1)C(=O)N(C)CC(CN1C3CCC[C@H]1CC3)O2 (stereo partly shown) [Compound 1015] | + (+ is <30%) | – | – | –
Cc1cccc(C)c1-c1cc2nc(n1)NS(=O)(=O)c1cccc(c1)C(=O)N(C)C(c1ccc(C(C)(C)C)cc1)CO2 (stereo not shown) [Compound 13, 11-(4-tert-butylphenyl)-6-(2,6-dimethylphenyl)-12-methyl-2,2-dioxo-9-oxa-2λ^6-thia-3,5,12,19-tetrazatricyclo[12.3.1.14,8]nonadeca-1(18),4(19),5,7,14,16-hexaen-13-one] | – | ++ (++ is 30-60%) | < 1000 | –
Cc1cccc(C)c1-c1cc2nc(n1)NS(=O)(=O)c1cccc(c1)C(=O)N(Cc1ccc(N3CCC[C@H](O)C3)nc1)[C@H](CC(C)C)CO2 [Compound 962] | – | +++ (+++ is >60%) | < 1000 | –
Cc1cccc(C)c1-c1cc2nc(n1)NS(=O)(=O)c1cccc(c1)C(=O)N(CCC(C)(C)C)[C@H](CC(F)(F)F)CO2 [Compound 985] | – | ++ (++ is 30-60%) | < 1000 | –
Cc1cccc(C)c1-c1cc2nc(n1)NS(=O)(=O)c1cccc(c1)C(=O)N(C)CC(c1ccc(C3=CCN(C)CC3)cc1)O2 (stereo not shown) [Compound 676] | ++ (++ is 30-60%) | – | – | 3000 to 30000
COc1ccncc1CN1C(=O)c2cccc(c2)S(=O)(=O)Nc2nc(cc(-c3c(C)cccc3C)n2)OC[C@H]1CC(C)C [Compound 421] | +++ (+++ is >60%) | – | – | < 1000
Cc1cccc(C)c1-c1cc2nc(n1)NS(=O)(=O)c1cccc(c1)C(=O)N(C)C[C@H](c1ccc(-c3ccc(C(C)(C)C)cc3)cn1)O2 [Compound 510] | – | +++ (+++ is >60%) | < 1000 | –
Cc1cccc(C)c1-c1cc2nc(n1)NS(=O)(=O)c1cccc(c1)C(=O)N(Cc1ccc(NC[C@@H](O)CO)nc1)[C@H](CC(C)C)CO2 [Compound 947] | – | +++ (+++ is >60%) | < 1000 | –
Cc1cccc(C)c1-c1cc2nc(n1)NS(=O)(=O)c1cccc(c1)C(=O)N(Cc1cc3n(n1)CCNC3=O)[C@H](CC(C)C)CO2 [Compound 41, (11R)-6-(2,6-dimethylphenyl)-11-isobutyl-2,2-dioxo-12-[(4-oxo-6,7-dihydro-5H-pyrazolo[1,5-a]pyrazin-2-yl)methyl]-9-oxa-2λ^6-thia-3,5,12,19-tetrazatricyclo[12.3.1.14,8]nonadeca-1(18),4(19),5,7,14,16-hexaen-13-one] | +++ (+++ is >60%) | – | – | < 1000
Cc1cccc(C)c1-c1cc2nc(n1)NS(=O)(=O)c1cccc(c1)C(=O)N(Cc1ccc(N3CCN(C)CC3)nc1)[C@H](CC1(C(F)(F)F)CC1)CO2 [Compound 684] | – | +++ (+++ is >60%) | < 1000 | –
Cc1cccc(C)c1-c1cc2nc(n1)NS(=O)(=O)c1cccc(c1)CN(CCc1ccccc1)[C@H](CC(C)C)CO2 [Compound 1040] | – | ++ (++ is 30-60%) | < 1000 | –
Cc1cccc(C)c1-c1cc2nc(n1)NS(=O)(=O)c1cccc(c1)C(=O)N(CCC(C)C)CC(c1ccc(C(C)(C)C)cc1)O2 (stereo not shown) [Compound 341] | ++ (++ is 30-60%) | – | – | 1000 to 3000
Cc1cccc(C)c1-c1cc2nc(n1)NS(=O)(=O)c1cccc(c1)C(=O)N(C)[C@H](CC(C)C)C(c1ccccn1)O2 (stereo partly shown) [Compound 337] | – | +++ (+++ is >60%) | < 1000 | –
Cc1cccc(C)c1-c1cc2nc(n1)NS(=O)(=O)c1cccc(c1)C(=O)N(C)CC(c1ccc(C3CC3)cc1)O2 (stereo not shown) [Compound 674] | ++ (++ is 30-60%) | – | – | < 1000
Cc1cccc(C)c1-c1cc2nc(n1)NS(=O)(=O)c1cccc(c1)CN(CCC(C)CC(C)(C)C)[C@H](CC(C)C)CO2 (stereo partly shown) [Compound 1022] | – | ++ (++ is 30-60%) | < 1000 | –
Cc1cccc(C)c1-c1cc2nc(n1)NS(=O)(=O)c1cccc(c1)CN(Cc1ccccc1OCc1ccccc1)[C@H](CC(C)C)CO2 [Compound 1037] | – | ++ (++ is 30-60%) | < 1000 | –
Cc1cccc(C)c1-c1cc2nc(n1)NS(=O)(=O)c1cccc(c1)C(=O)N(Cc1ccccc1)C(C(=O)NCc1ccccc1)CO2 (stereo not shown) [Compound 514] | + (+ is <30%) | – | – | 3000 to 30000
Cc1cccc(C)c1-c1cc2nc(n1)NS(=O)(=O)c1cccc(c1)CN(Cc1cc(C)c3[nH]ncc3c1)[C@H](CC(C)C)CO2 [Compound 1027] | – | +++ (+++ is >60%) | < 1000 | –
Cc1cccc(C)c1-c1cc2nc(n1)NS(=O)(=O)c1cccc(c1)C(=O)N(CC1CCCN1C(=O)OC(C)(C)C)[C@H](CC(C)C)CO2 (stereo partly shown) [Compound 346] | +++ (+++ is >60%) | – | – | < 1000
COc1ccc(CN2C(=O)c3cccc(c3)S(=O)(=O)Nc3nc(cc(-c4c(C)cccc4C)n3)OC[C@H]2CC2(C(F)(F)F)CC2)cc1 [Compound 679] | – | +++ (+++ is >60%) | < 1000 | –
Cc1ccccc1CN1C(=O)c2cccc(c2)S(=O)(=O)Nc2nc(cc(-c3c(C)cccc3C)n2)OC[C@H]1CC(C)C [Compound 356] | +++ (+++ is >60%) | – | – | < 1000
Cc1cccc(C)c1-c1cc2nc(n1)NS(=O)(=O)c1cccc(c1)C(=O)N(CCOCc1ccccc1)[C@H](CC(C)C)CO2 [Compound 81, (11R)-12-[2-(Benzyloxy)ethyl]-6-(2,6-dimethylphenyl)-11-(2-methylpropyl)-9-oxa-2λ^6-thia-3,5,12,19-tetraazatricyclo[12.3.1.14,8]nonadeca-1(17),4,6,8(19),14(18),15-hexaene-2,2,13-trione] | +++ (+++ is >60%) | – | – | < 1000
Cc1cccc(C)c1-c1cc2nc(n1)NS(=O)(=O)c1cccc(c1)C(=O)N(CC1CCN(C)CC1)[C@H](CC(C)C)CO2 [Compound 360] | +++ (+++ is >60%) | – | – | 1000 to 3000
CNCCNCC1CN(C)C(=O)c2cccc(c2)S(=O)(=O)Nc2nc(cc(-c3c(C)cccc3C)n2)O1 (stereo not shown) [Compound 1016] | + (+ is <30%) | – | – | –
